Test results published in patent US11053204B2, “Pyrimidinyloxy benzene derivatives as herbicides” (FMC Corporation, priority 2015, dated 2021).

Assays:
Assay type in all cases: in vivo
[1] = tested on: barnyardgrass (Echinochloa crus-galli); experiment: Test C preemergence, plant response rating; conditions: Preemergence
[2] = tested on: rice (Oryza sativa); experiment: Test C flooded paddy test, plant response rating; conditions: flood, scale 0 to 100
Description: (§1) At the same time, plants selected from these crop and weed species and also chickweed (common chickweed, Stellaria media), buckwheat, wild (wild buckwheat, Polygonum convolvulus), wild mustard (Sinapis arvensis), field poppy (Papaver rhoeas), field violet (Viola arvensis), geranium, cutleaf (cutleaf geranium, Geranium dissectum), Canada thistle (Cirsium arvense), and speedwell (bird's-eye speedwell, Veronica persica), were planted in pots containing Sunshine Redi-Earth® planting medium comprising spaghnum peat moss, vermiculite, starter nutrients and dolomitic limestone and treated with postemergence applications of test chemicals formulated in the same manner. Plants ranged in height from 2 to 18 cm (1- to 4-leaf stage) for postemergence treatments. Treated plants and controls were maintained in a greenhouse for 13 to 15 d, after which time all species were compared to controls and visually evaluated. Plant response ratings, summarized in Table C, are based on a scale of 0 to 100 where 0 is no effect and 100 is complete control. A dash (-) response means no test result.
(§2) Plant species in the flooded paddy test consisted of rice (Oryza sativa), sedge, umbrella (small-flower umbrella sedge Cyperus difformis), ducksalad (Heteranthera limosa), and barnyardgrass (Echinochloa crus-galli) grown to the 2-leaf stage for testing. At time of treatment, test pots were flooded to 3 cm above the soil surface, treated by application of test compounds directly to the paddy water, and then maintained at that water depth for the duration of the test.

[3] = tested on: sedge, umbrella (small-flower umbrella sedge Cyperus difformis); experiment: Test C flooded paddy test, plant response rating; conditions: flood, scale 0 to 100
Description: as §1, §2

[4] = tested on: barnyardgrass (Echinochloa crus-galli); experiment: Test C flooded paddy test, plant response rating; conditions: flood, scale 0 to 100
Description: as §1, §2

[5] = tested on: ducksalad (Heteranthera limosa); experiment: Test C flooded paddy test, plant response rating; conditions: flood, scale 0 to 100
Description: as §1, §2

[6] = tested on: nightshade (eastern black nightshade, Solanum ptycanthum); experiment: Test C preemergence, plant response rating
[7] = tested on: galium (catchweed bedstraw, Galium aparine); experiment: Test C preemergence, plant response rating
[8] = tested on: surinam grass (Brachiaria decumbens); experiment: Test C preemergence, plant response rating

O=C(CCC(F)(F)F)c1c(Br)cccc1Oc1ncc(Cl)cn1 [Compound 92]
Plant response rating, Barnyardgrass ([1]; 125 g ai/ha, scale of 0 to 100): 100
Plant response rating, Barnyardgrass ([1]; 16 g ai/ha, scale 0 to 100): 35
Plant response rating, Barnyardgrass ([1]; 31 g ai/ha, scale 0 to 100): 85
Plant response rating, Barnyardgrass ([1]; 62 g ai/ha, scale 0 to 100): 98
Rice plant response rating ([2]; 31 g ai/ha): 10
Rice plant response rating ([2]; 62 g ai/ha): 15
Rice plant response rating ([2]; 125 g ai/ha): 15
Rice plant response rating ([2]; 250 g ai/ha): 15
Sedge, Umbrella plant response rating ([3]; 31 g ai/ha): 20
Sedge, Umbrella plant response rating ([3]; 62 g ai/ha): 60
Sedge, Umbrella plant response rating ([3]; 125 g ai/ha): 90
Sedge, Umbrella plant response rating ([3]; 250 g ai/ha): 100
Barnyardgrass plant response rating ([4]; 31 g ai/ha): 0
Barnyardgrass plant response rating ([4]; 62 g ai/ha): 0
Barnyardgrass plant response rating ([4]; 125 g ai/ha): 20
Barnyardgrass plant response rating ([4]; 250 g ai/ha): 40
Ducksalad plant response rating ([5]; 31 g ai/ha): 30
Ducksalad plant response rating ([5]; 62 g ai/ha): 60
Ducksalad plant response rating ([5]; 125 g ai/ha): 95
Ducksalad plant response rating ([5]; 250 g ai/ha): 100

CCCCC(=O)c1c(Br)cccc1Oc1ncc(Cl)cn1 [Compound 79]
Plant response rating, Nightshade ([6]; 16 g ai/ha, scale 0 to 100): 30
Plant response rating, Nightshade ([6]; 31 g ai/ha, scale 0 to 100): 65
Plant response rating, Nightshade ([6]; 62 g ai/ha, scale 0 to 100): 80
Plant response rating, Nightshade ([6]; 125 g ai/ha, scale of 0 to 100): 95
Plant response rating, Barnyardgrass ([1]; 62 g ai/ha, scale of 0 to 100): 75
Plant response rating, Barnyardgrass ([1]; 125 g ai/ha, scale of 0 to 100): 95
Plant response rating, Barnyardgrass ([1]; 16 g ai/ha, scale 0 to 100): 5
Plant response rating, Barnyardgrass ([1]; 31 g ai/ha, scale 0 to 100): 60
Plant response rating, Galium ([7]; 16 g ai/ha, scale 0 to 100): 0
Plant response rating, Galium ([7]; 31 g ai/ha, scale 0 to 100): 0
Plant response rating, Galium ([7]; 62 g ai/ha, scale of 0 to 100): 70
Plant response rating, Galium ([7]; 125 g ai/ha, scale of 0 to 100): 5
Plant response rating, Surinam Grass ([8]; 16 g ai/ha, scale 0 to 100): 5
Plant response rating, Surinam Grass ([8]; 31 g ai/ha, scale 0 to 100): 30
Plant response rating, Surinam Grass ([8]; 62 g ai/ha, scale 0 to 100): 50
Plant response rating, Surinam Grass ([8]; 125 g ai/ha, scale of 0 to 100): 85

O=C(CCCCC(F)(F)F)c1c(Br)cccc1Oc1ncc(Cl)cn1 [Compound 82]
Plant response rating, Nightshade ([6]; 31 g ai/ha, scale 0 to 100): 20
Plant response rating, Nightshade ([6]; 62 g ai/ha, scale 0 to 100): 40
Plant response rating, Nightshade ([6]; 125 g ai/ha, scale of 0 to 100): 85
Plant response rating, Barnyardgrass ([1]; 125 g ai/ha, scale of 0 to 100): 90
Plant response rating, Barnyardgrass ([1]; 16 g ai/ha, scale 0 to 100): 5
Plant response rating, Barnyardgrass ([1]; 31 g ai/ha, scale 0 to 100): 5
Plant response rating, Barnyardgrass ([1]; 62 g ai/ha, scale 0 to 100): 20
Plant response rating, Galium ([7]; 31 g ai/ha, scale 0 to 100): 0
Plant response rating, Galium ([7]; 62 g ai/ha, scale 0 to 100): 0
Plant response rating, Galium ([7]; 125 g ai/ha, scale of 0 to 100): 80
Plant response rating, Surinam Grass ([8]; 31 g ai/ha, scale 0 to 100): 10
Plant response rating, Surinam Grass ([8]; 62 g ai/ha, scale 0 to 100): 25
Plant response rating, Surinam Grass ([8]; 125 g ai/ha, scale of 0 to 100): 35

FC(F)(F)CCCCc1c(Br)cccc1Oc1ncc(Cl)cn1 [Compound 138]
Plant response rating, Nightshade ([6]; 31 g ai/ha, scale 0 to 100): 50
Plant response rating, Nightshade ([6]; 62 g ai/ha, scale 0 to 100): 80
Plant response rating, Nightshade ([6]; 125 g ai/ha, scale of 0 to 100): 80
Plant response rating, Barnyardgrass ([1]; 125 g ai/ha, scale of 0 to 100): 95
Plant response rating, Barnyardgrass ([1]; 16 g ai/ha, scale 0 to 100): 20
Plant response rating, Barnyardgrass ([1]; 31 g ai/ha, scale 0 to 100): 40
Plant response rating, Barnyardgrass ([1]; 62 g ai/ha, scale 0 to 100): 80
Plant response rating, Galium ([7]; 31 g ai/ha, scale 0 to 100): 0
Plant response rating, Galium ([7]; 62 g ai/ha, scale 0 to 100): 5
Plant response rating, Galium ([7]; 125 g ai/ha, scale of 0 to 100): 5
Plant response rating, Surinam Grass ([8]; 31 g ai/ha, scale 0 to 100): 65
Plant response rating, Surinam Grass ([8]; 62 g ai/ha, scale 0 to 100): 65
Plant response rating, Surinam Grass ([8]; 125 g ai/ha, scale of 0 to 100): 75

O=C(CCC(F)(F)F)c1c(Cl)cccc1Oc1ncc(Cl)cn1 [Compound 107, 1-[2-chloro-6-[(5-chloro-2-pyrimidinyl)oxy]phenyl]-4,4,4-trifluoro-1-butanone]
Plant response rating, Nightshade ([6]; 31 g ai/ha, scale 0 to 100): 60
Plant response rating, Nightshade ([6]; 62 g ai/ha, scale 0 to 100): 80
Plant response rating, Nightshade ([6]; 125 g ai/ha, scale of 0 to 100): 90
pest or weed control at 125 g/ha ([1]; Echinochloa crus-galli, pre-emergence, 125 g ai/ha, scale of 0 to 100): 100%
pest or weed control at 16 g/ha ([1]; Echinochloa crus-galli, pre-emergence, 16 g ai/ha, scale 0 to 100): 65%
pest or weed control at 31 g/ha ([1]; Echinochloa crus-galli, pre-emergence, 31 g ai/ha, scale 0 to 100): 85%
pest or weed control at 62 g/ha ([1]; Echinochloa crus-galli, pre-emergence, 62 g ai/ha, scale 0 to 100): 100%
Plant response rating, Galium ([7]; 31 g ai/ha, scale 0 to 100): 60
Plant response rating, Galium ([7]; 62 g ai/ha, scale 0 to 100): 90
Plant response rating, Galium ([7]; 125 g ai/ha, scale of 0 to 100): 95
Plant response rating, Surinam Grass ([8]; 31 g ai/ha, scale 0 to 100): 60
Plant response rating, Surinam Grass ([8]; 62 g ai/ha, scale 0 to 100): 98
Plant response rating, Surinam Grass ([8]; 125 g ai/ha, scale of 0 to 100): 98

N#CC(CCCC(F)(F)F)c1ccccc1Oc1ncc(Cl)cn1 (stereo not shown) [Compound 144]
Plant response rating, Nightshade ([6]; 31 g ai/ha, scale 0 to 100): 65
Plant response rating, Nightshade ([6]; 62 g ai/ha, scale 0 to 100): 90
Plant response rating, Nightshade ([6]; 125 g ai/ha, scale of 0 to 100): 100
Plant response rating, Barnyardgrass ([1]; 125 g ai/ha, scale of 0 to 100): 95
Plant response rating, Barnyardgrass ([1]; 16 g ai/ha, scale 0 to 100): 10
Plant response rating, Barnyardgrass ([1]; 31 g ai/ha, scale 0 to 100): 40
Plant response rating, Barnyardgrass ([1]; 62 g ai/ha, scale 0 to 100): 70
Plant response rating, Galium ([7]; 31 g ai/ha, scale 0 to 100): 50
Plant response rating, Galium ([7]; 62 g ai/ha, scale 0 to 100): 50
Plant response rating, Galium ([7]; 125 g ai/ha, scale of 0 to 100): 55
Plant response rating, Surinam Grass ([8]; 31 g ai/ha, scale 0 to 100): 5
Plant response rating, Surinam Grass ([8]; 62 g ai/ha, scale 0 to 100): 70
Plant response rating, Surinam Grass ([8]; 125 g ai/ha, scale of 0 to 100): 60

FC(F)(F)CCCc1c(Br)cccc1Oc1ncc(Cl)cn1 [Compound 89]
Plant response rating, Nightshade ([6]; 31 g ai/ha, scale 0 to 100): 75
Plant response rating, Nightshade ([6]; 62 g ai/ha, scale 0 to 100): 65
Plant response rating, Nightshade ([6]; 125 g ai/ha, scale of 0 to 100): 85
Plant response rating, Barnyardgrass ([1]; 125 g ai/ha, scale of 0 to 100): 100
Plant response rating, Barnyardgrass ([1]; 16 g ai/ha, scale 0 to 100): 5
Plant response rating, Barnyardgrass ([1]; 31 g ai/ha, scale 0 to 100): 35
Plant response rating, Barnyardgrass ([1]; 62 g ai/ha, scale 0 to 100): 90
Plant response rating, Galium ([7]; 31 g ai/ha, scale 0 to 100): 0
Plant response rating, Galium ([7]; 62 g ai/ha, scale 0 to 100): 0
Plant response rating, Galium ([7]; 125 g ai/ha, scale of 0 to 100): 0
Plant response rating, Surinam Grass ([8]; 31 g ai/ha, scale 0 to 100): 35
Plant response rating, Surinam Grass ([8]; 62 g ai/ha, scale 0 to 100): 65
Plant response rating, Surinam Grass ([8]; 125 g ai/ha, scale of 0 to 100): 75

C=C(Br)COC(=O)c1c(Br)cccc1Oc1ncc(Cl)cn1 [Compound 61]
Plant response rating, Nightshade ([6]; 16 g ai/ha, scale 0 to 100): 60
Plant response rating, Nightshade ([6]; 31 g ai/ha, scale 0 to 100): 60
Plant response rating, Nightshade ([6]; 62 g ai/ha, scale 0 to 100): 50
Plant response rating, Nightshade ([6]; 125 g ai/ha, scale of 0 to 100): 75
Plant response rating, Barnyardgrass ([1]; 62 g ai/ha, scale of 0 to 100): 50
Plant response rating, Barnyardgrass ([1]; 125 g ai/ha, scale of 0 to 100): 65
Plant response rating, Barnyardgrass ([1]; 16 g ai/ha, scale 0 to 100): 0
Plant response rating, Barnyardgrass ([1]; 31 g ai/ha, scale 0 to 100): 0
Rice plant response rating ([2]; 31 g ai/ha): 20
Rice plant response rating ([2]; 62 g ai/ha): 20
Rice plant response rating ([2]; 125 g ai/ha): 20
Rice plant response rating ([2]; 250 g ai/ha): 20
Sedge, Umbrella plant response rating ([3]; 31 g ai/ha): 80
Sedge, Umbrella plant response rating ([3]; 62 g ai/ha): 80
Sedge, Umbrella plant response rating ([3]; 125 g ai/ha): 85
Sedge, Umbrella plant response rating ([3]; 250 g ai/ha): 85
Barnyardgrass plant response rating ([4]; 31 g ai/ha): 0
Barnyardgrass plant response rating ([4]; 62 g ai/ha): 0
Barnyardgrass plant response rating ([4]; 125 g ai/ha): 20
Barnyardgrass plant response rating ([4]; 250 g ai/ha): 40
Ducksalad plant response rating ([5]; 31 g ai/ha): 50
Ducksalad plant response rating ([5]; 62 g ai/ha): 75
Ducksalad plant response rating ([5]; 125 g ai/ha): 90
Ducksalad plant response rating ([5]; 250 g ai/ha): 90
Plant response rating, Galium ([7]; 16 g ai/ha, scale 0 to 100): 0
Plant response rating, Galium ([7]; 31 g ai/ha, scale 0 to 100): 0
Plant response rating, Galium ([7]; 62 g ai/ha, scale of 0 to 100): 10
Plant response rating, Galium ([7]; 125 g ai/ha, scale of 0 to 100): 15
Plant response rating, Surinam Grass ([8]; 16 g ai/ha, scale 0 to 100): 0
Plant response rating, Surinam Grass ([8]; 31 g ai/ha, scale 0 to 100): 10
Plant response rating, Surinam Grass ([8]; 62 g ai/ha, scale 0 to 100): 60
Plant response rating, Surinam Grass ([8]; 125 g ai/ha, scale of 0 to 100): 25
